Measured values from patent US9387213B2, “Small molecules inhibiting oncoprotein Myc” (Health Research, Inc., priority 2012, dated 2016).

How the values were obtained:
HO-N-myc cells = assay: Secondary filter for Myc specificity: cell growth inhibition, methylene blue staining; type: cell-based, rat
Experimental: (§1) FIG. 4 illustrates the myc specificity of tested compounds. Rat1a cells expressing c-myc, L-myc or N-myc or lacking any Myc (null) were treated for 72 h with a range of hit compound concentrations. The cells were then fixed and stained with methylene blue and the percentage of cells in the presence of compound compared to DMSO only control was calculated.
(§2) Validated hits were divided into classes when two or more compounds shared significant structural similarity. The ID50 for N-myc transactivation (the inhibitory dose resulting in 50% decrease in luciferase activity) for each hit was calculated from the dose-response N-myc responsive reporter assay. Compounds within each class were ranked by their ID50 for N-myc transactivation and the best compounds within each class were chosen for further studies. In addition, the best of the structurally unique compounds were also analyzed. A total of 46 hits were passed through a secondary filter designed to determine the specificity of the hits for Myc proteins. For this filter, we used a panel of cell lines derived from Rat1a cells (kindly provided by Michael Cole, Dartmouth University): HO-null-c-Myc deficient cells due to homologous recombination that express neither N-myc nor L-myc HO-c-Myc, HO-L-myc and HO-N-myc derived by retroviral transduction of the corresponding Myc genes into HO-null cells. Since each cell line expresses only a single Myc or no Myc family members, we could identify compounds that act through Myc family members as well as which Myc family members. […] The 18 Myc-specific compounds identified during the screening and filtering process are presented in Table 1 and represent distinct classes of molecules, including pyrazoles (e.g., N147A7, N47E10, N147G5), tetrazoles (e.g., N77A7) and 3-bromophenol (e.g., N4G6).

HO-c-Myc cells = assay: as above; type: cell-based, rat
Experimental: as §1, §2

SK-Mel-103 = assay: Suppression of proliferation / senescence induction in melanoma line; type: cell-based; settings: Homo sapiens
Source text: (§3) 260 analogs of N77A7 were selected from several commercially available libraries of small molecules based on the structural similarities with N77A7. The compounds were screened for the ability to permanently suppress proliferation and induce senescence in cells from melanoma lines SK-Mel-19 and SK-Mel-103. Based on the above-described screening procedure, seven small molecules were identified as having IC50 values lower than that of N77A7.

SK-Mel-19 = assay: as above; type: cell-based; settings: Homo sapiens, SK-MEL19
Source text: as §3

in vitro = settings: microsomes, pH 7.4; for Percent Remaining 0 min: 0 h; for Percent Remaining 0 min / Percent Remaining 10 min / Percent Remaining 20 min / Percent Remaining 30 min / Percent Remaining 60 min: 1 μM; for Percent Remaining 30 min: 0.5 h; for Percent Remaining 60 min: 1 h
Experimental: Additionally, several of the N77A7 analogs were subjected to the test for the metabolic stability in human and mouse liver microsomes. Briefly, 1 μM of test compound was incubated with microsomal protein (human liver microsomes: 0.5 mg/mL; mouse liver microsomes 0.5 mg/mL) and buffer (100 mM potassium phosphate, pH 7.4, 5 mM magnesium chloride). The positive control was 5 μM testosterone. The reaction was equilibrated at 37 C in a shaking water bath for 3 to 5 minutes. After equilibration, an aliquot was removed and combined with 50/50 acetonitrile/water containing 0.1% formic acid and internal standard to terminate the reaction. 1 mM NADPH was immediately added and the tube was returned to the water bath. Five sample time points were taken (0, 10, 20, 30, and 60 minutes). Aliquots were removed and combined with 50/50 acetonitrile/water containing 0.1% formic acid and internal standard to terminate the reaction. The samples were mixed for 10 minutes and centrifuged. The supernatant from each sample was diluted (if necessary) and then transferred to vials for analysis by LC-MS/MS for the test compound and internal standard without calibration standards. The percent remaining at each time point was determined by the test compound's peak area response ratio versus the 0 minute sample.

HO15.19-Vector cells = assay: Cell cycle distribution by FACS; type: cell-based, rat; settings: 3 μM
[1] = tested on: SK-Mel-103 melanoma cells
Experimental: One week following inoculation, treatment with 50 mg/kg N77A7 or Captisol vehicle control commenced. Treatment occurred daily by ip administration. Tumors were measured biweekly. Tumor volume was calculated using the formula tumor volume=L×W^2/2, where W=shortest dimension.
Our Myc inhibitors were tested for their effect against a panel of tumor cell lines, including neuroblastoma and melanoma that represent cell lines with aberrant N-myc and c-Myc expression, respectively. This panel of cell lines included the human neuroblastoma lines BE(2)C, IMR32 and NBL-WN (N-myc amplified), NBL-S (N-myc overexpression), SH-SY5Y (significant N- and c-Myc expression) and SH-EP (low levels c-Myc only) as well as two melanoma cell lines (#3 and #10-c-Myc overexpression) and normal melanocytes).

Solubility remark = type: physicochemical; settings: prepared in methylcellulose
[2] = tested on: C-MYC-activated global gene expression in SK-Mel-103 melanoma cells; assay: Global gene expression analysis, Affymetrix U133 Plus 2.0; type: cell-based, human; settings: 4 μM, 48 hours
Experimental: FIG. 13 illustrates a comparison of changes in global gene expression caused by depletion of C-MYC via shRNA or by treatment with N77A7.
SK-Mel-103 melanoma cells were infected with control- or MYC shRNA-expressing lentiviruses or treated with DMSO or 4 μM of N77A7. In 48 hours after lentiviral infection or incubation with the chemicals, cells were collected, RNA was isolated and subjected to global expression analysis using Affymetrix GeneChip® Human Genome U133 Plus 2.0 Platform. A linear model specifically designed for microarray analysis was applied to the data. Differentially expressed probe sets were detected using a nested F-test approach. An adjusted p-value of 0.005 was used to assess significance, adjusting for multiple comparisons using false discovery rate. The obtained results are schematically represented in FIG. 13. It was determined that incubation with N77A7 negatively affected expression of 820 genes by ≧2 fold (591+229, FIG. 13). […] Therefore it is logical to expect that the number of genes whose expression is suppressed both by MYC-shRNA and N77A7 should be higher than the number of genes whose expression is induced by both treatments.

melanoma cells (Mel-9) = assay: Stable-isotope tracing, 13C labeling of central metabolites; type: cell-based; settings: 13C-glucose, 24 h, compared to control
Experimental: Cells were grown in 6-well plates, and the medium was replaced for the final 24 h of culture with the MEM medium described previously (Scott et al., JBC 286, 42626-34, 2011), containing 50% ^13C-labeled [U-^13C6] glucose or 50% ^13C-labeled [U-^13C5] glutamine] […] Metabolites were extracted and GC-MS analysis and calculation of ^13C labeling were performed as described (Scott et al., 2011). Metabolites were quantified on the basis of fragment ion intensities and standard curves derived from mixtures of standards run concurrently with samples, using the program Metaquant (B. Bunk et al., Bioinformatics 22, 2962-2965, 2006). On the graphs, the 13C labeling percentage is shown as average of to separate experiments (with error bars). Samples from cells treated by antimycon (“N77”), anti-MYC shRNA (“Myc”), nonspecific shRNA (“NS”) and the control treated only by DMSO are shown bars with distinct patterns.

CCN(CC)c1ccc(/C=N/NC(=O)Cn2nnc(-c3ccccc3)n2)c(O)c1 [Compound N77A7]
Myc Index N (HO-N-myc cells; ID50 in HO-null cells divided by ID50 in HO—N-myc cells): 4.5
IC50 (HO-N-myc cells; Rattus norvegicus, cell growth inhibition, 72 h, methylene blue, read-out: ID50 HO—N-myc): 770 nM
Myc Index C (HO-c-Myc cells; ID50 in HO-null cells divided by ID50 in HO-c-myc cells): 0.8
IC50 (HO-c-Myc cells; Rattus norvegicus, cell growth inhibition, 72 h, methylene blue, read-out: ID50 HO-c-myc): 4700 nM
IC50 (SK-Mel-103): 3000 nM
IC50 (SK-Mel-19): 3000 nM
Percent Remaining 0 min (in vitro; human): 100%
Percent Remaining 10 min (in vitro; human): 87%
Percent Remaining 20 min (in vitro; human): 30%
Percent Remaining 30 min (in vitro; human): 1− Percent
Percent Remaining 60 min (in vitro; human): <1.0%
half-life at 1 µM (in vitro; human): 13.1 min
microsomal CLint at 1 μM (in vitro; human): 110 µL/min/mg
Percent Remaining 0 min (in vitro; mouse): 100%
Percent Remaining 10 min (in vitro; mouse): 25%
Percent Remaining 20 min (in vitro; mouse): 8.9%
Percent Remaining 30 min (in vitro; mouse): 4.5%
Percent Remaining 60 min (in vitro; mouse): <1.0%
half-life at 1 µM (in vitro; mouse): 5.2 min
microsomal CLint at 1 μM (in vitro; mouse): 270 µL/min/mg
HO15.19-Vector G2 (HO15.19-Vector cells; percent of cells in G2 phase): 23.88%
HO15.19-Vector S (HO15.19-Vector cells; percent of cells in S phase): 21.22%
observable toxicity ([1]; mouse, in vivo): absence of any observable toxicity
tumor growth ([1]; preliminary, ½ maximum tolerated dose, melanoma xenograft, FIG. 7): reduced tumor growth compared to the vehicle control
solubility (Solubility remark): poorly soluble
number of genes whose expression was negatively affected by ≧2 fold [2]: 820 genes
number of these genes also suppressed ≧2 fold by MYC shRNA [2]: 591 genes
share of genes induced ≧2 fold also upregulated ≧2 fold by MYC shRNA [2]: 47.1%
share of suppressed genes also suppressed ≧2 fold by MYC shRNA [2]: 72.1%
labeling via glucose of serine, glycine, pyruvate, lactate, TCA-cycle metabolites (melanoma cells (Mel-9)): lower
